{
  "source": "ChEMBL document CHEMBL1629567",
  "about": "“Pharmacodynamics of cidofovir for vaccinia virus infection in an in vitro hollow-fiber infection model system” (Antimicrob Agents Chemother, 2009)",
  "key": {"Vaccinia virus [1]": {"system": "Vaccinia virus", "experiment": "Antiviral activity against Vaccinia virus WR infected in cynomolgus monkey with probenecid assessed as decrease in plasma viral titer at 5 dose regimen of 2.5 mg/kg for 13 days", "type": "functional", "conditions": "Orthopoxvirus vaccinia, in Macaca fascicularis, 312 h"}, "[2]": {"experiment": "Antiviral activity against Vaccinia virus IHD-J ATCC VR-156 infected in HeLaS3 cells after 3 to 5 days by plaque assay", "type": "functional, cell-based", "conditions": "ATCC VR-156, HeLa S3"}, "[3]": {"experiment": "AUC (0 to 24 hrs) in hollow-fiber infection model at 3 uM as continuous infusion", "type": "ADME", "design": "time < 24 hr, dose 3 uM"}, "Vaccinia virus [4]": {"system": "Vaccinia virus", "experiment": "Antiviral activity against Vaccinia virus IHD-W ATCC VR-1441 infected in HeLaS3 cells after 3 to 5 days by plaque assay", "type": "functional, organism-based", "conditions": "Orthopoxvirus vaccinia, IHD-W ATCC VR-1441, HeLa S3"}, "[5]": {"experiment": "AUC in cynomolgus monkey with probenecid at 5 mg/kg six dose regimen for 13 days", "type": "ADME, organism-based, Macaca fascicularis", "design": "dose 5 mg/kg", "conditions": "plasma"}, "[6]": {"experiment": "AUC in cynomolgus monkey with probenecid at 2.5 mg/kg", "type": "ADME, organism-based, Macaca fascicularis", "design": "dose 2.5 mg/kg", "conditions": "plasma"}, "[7]": {"experiment": "AUC in cynomolgus monkey with probenecid at 5 mg/kg five dose regimen for 13 days", "type": "ADME, organism-based, Macaca fascicularis", "design": "dose 5 mg/kg", "conditions": "plasma"}, "[8]": {"experiment": "AUC (0 to infinity) in human at 5 mg/kg administered as single dose", "type": "ADME, organism-based", "design": "time infinity, dose 5 mg/kg", "conditions": "plasma"}, "Vaccinia virus [9]": {"system": "Vaccinia virus", "experiment": "Antiviral activity against Vaccinia virus WR infected in cynomolgus monkey with probenecid assessed as decrease in plasma viral titer at 6 dose regimen of 2.5 mg/kg for 13 days", "type": "functional, Orthopoxvirus vaccinia", "design": "scale not given: the % may be the effect or the level left"}, "[10]": {"experiment": "AUC in cynomolgus monkey with probenecid at 5 mg/kg single dose regimen for 13 days", "type": "ADME, organism-based, Macaca fascicularis", "design": "dose 5 mg/kg", "conditions": "plasma"}, "Variola major virus": {"system": "Variola major virus", "experiment": "Antiviral activity against Variola major virus", "type": "functional"}, "[11]": {"experiment": "AUC (0 to 24 hrs) in hollow-fiber infection model at >50 uM as continuous infusion", "type": "ADME", "design": "dose 50 uM, time < 24 hr"}},
  "data": [
    {"smiles": "Nc1ccn(C[C@@H](CO)OCP(=O)(O)O)c(=O)n1.O.O", "note": "[CIDOFOVIR]", "values": [
      {"measurement": "Emax at 2.5 mg/kg", "setting": "Vaccinia virus [1]", "value": 30, "unit": "%"},
      {"measurement": "EC50", "setting": "[2]", "value": 18.7, "unit": "µM"},
      {"measurement": "AUC(0-t) at 24 h, 3 µM", "setting": "[3]", "value": 72, "unit": "µM·h"},
      {"measurement": "EC50", "setting": "Vaccinia virus [4]", "value": 20.6, "unit": "µM"},
      {"measurement": "AUC at 312 h", "setting": "[5]", "value": 617, "unit": "µM·h"},
      {"measurement": "AUC", "setting": "[6]", "value": 14400, "unit": "ng·h/mL"},
      {"measurement": "AUC at 312 h", "setting": "[7]", "value": 514, "unit": "µM·h"},
      {"measurement": "AUC(0-inf)", "setting": "[8]", "value": 75, "unit": "µM·h"},
      {"measurement": "Activity", "setting": "Vaccinia virus [9]", "value": "<10", "unit": "%"},
      {"measurement": "AUC at 312 h", "setting": "[10]", "value": 103, "unit": "µM·h"},
      {"measurement": "Activity", "setting": "Variola major virus", "value": 6, "unit": "µM"},
      {"measurement": "AUC(0-t) at 24 h, 50 µM", "setting": "[11]", "value": "> 1200", "unit": "µM·h"}
    ]}
  ]
}
